From US8609719B2, “Propargylated aminoindans, processes for preparation, and uses thereof” (priority 2006, dated 2013) come the findings set out here.

Test [1] deals with T1, MAO-A (Rattus norvegicus, UniProt P21396).
T1 construct: from tissue; host or cells: brain, liver and intestine (duodenum) of dosed rats
T1 sequence (P21396 1-526): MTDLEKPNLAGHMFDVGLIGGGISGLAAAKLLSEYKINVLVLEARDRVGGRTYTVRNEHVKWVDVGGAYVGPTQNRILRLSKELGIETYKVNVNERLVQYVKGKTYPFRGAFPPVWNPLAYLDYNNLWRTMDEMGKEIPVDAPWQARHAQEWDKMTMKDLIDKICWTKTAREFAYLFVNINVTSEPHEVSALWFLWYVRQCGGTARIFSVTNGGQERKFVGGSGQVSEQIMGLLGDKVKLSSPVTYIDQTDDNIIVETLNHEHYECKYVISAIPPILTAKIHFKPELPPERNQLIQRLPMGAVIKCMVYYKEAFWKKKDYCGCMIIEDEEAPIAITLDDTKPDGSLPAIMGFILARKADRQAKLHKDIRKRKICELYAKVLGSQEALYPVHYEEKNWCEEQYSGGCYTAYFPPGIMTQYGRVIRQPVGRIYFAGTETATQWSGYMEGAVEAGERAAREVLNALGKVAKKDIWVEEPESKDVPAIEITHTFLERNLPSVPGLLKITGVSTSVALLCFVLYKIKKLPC
As to the kind of experiment: MAO-A inhibition in rat organs after chronic P.O. administration. The test is classed as in vivo. The following applies: po, 7 days, 2 hours after last dose; for inhibition at 37.5 µmol/kg: 37.5 μmol/kg P.O. daily; for inhibition at 75 µmol/kg: 75 μmol/kg P.O. daily; for inhibition at 150 µmol/kg: 150 μmol/kg P.O. daily. As for the experimental part:
(§1) 30 rats were separated randomly into 5 testing groups of 6 rats each. Group 1 was the control group to which no drug was administered. Ethyl-hydroxymethyl-carbamic acid 3-R-(prop-2-ynylamino)-indan-5-yl ester fumarate (2:1) was administered to groups 2, 3, 4 in dosages of 150, 75, and 37.5 μmol/kg respectively, daily, perorally (“P.O.”) for seven consecutive days. Water was used as a vehicle.
(§2) Rats were sacrificed, out of sight of the other rats, 2 hours after the last administration. Brains were removed into Petri dishes on ice, the cerebellums were […], and the brains cut into halves for analysis. Livers and intestines were removed for MAO determination. Organs were homogenated for enzyme inhibition analysis.
(§3) The MAO inhibition after administration of ethyl-hydroxymethyl-carbamic acid 3-R-(prop-2-ynylamino)-indan-5-yl ester fumarate (2:1) in various organs is listed in Table 4 calculated in percent relative to the control group.

Test [2] concerns MAO. Briefly: MAO inhibition in rat organs after chronic administration, overall conclusion. It is filed as in vivo. Particulars: rats, P.O. daily for seven days. Here is the method:
as §1, §2, §3

Where [3] appears, read: read-out: Brain MAO-A inhibition relative to control.
Setting [4] is: read-out: Duodenum MAO-A inhibition relative to control.
[5] abbreviates: read-out: Liver MAO-A inhibition relative to control.

Where a name gives a salt, the structure may show the parent alone. Read-outs that look alike come from different tables or passages of the source.

A word on the inhibition: it is the drop in the measured response relative to a control, in per cent. Turning to `C#CCN[C@@H]1CCc2ccc(OC(=O)N(CC)CO)cc21` [R-HCPAI, Ethyl-hydroxymethyl-carbamic acid 3-R-(prop-2-ynylamino)-indan-5-yl ester fumarate (2:1)], in test [1] (setting [3]), the inhibition at 37.5 µmol/kg worked out at 8%, the inhibition at 75 µmol/kg was determined as 41% and the inhibition at 150 µmol/kg turned out to be 72%. In test [1] (setting [4]), the inhibition at 37.5 µmol/kg is -25%, the inhibition at 75 µmol/kg turned out to be 18% and the inhibition at 150 µmol/kg was 21%. Also, in test [1] (setting [5]), the inhibition at 37.5 µmol/kg stood at 3%, the inhibition at 75 µmol/kg came out at 9% and the inhibition at 150 µmol/kg stood at 16%. The “organ selectivity of MAO inhibition, in words” value in test [2] is listed as “brain-selective MAO inhibition”.
